Data published in patent US20020155192A1, “Yeast transport isoforms” (priority 2000, published 2002).
Like-named read-outs stand apart in the source and are kept apart here.

Tests used:
Assay type in all cases: biochemical
[1] = target: T1, Odc1p (Saccharomyces cerevisiae, UniProt Q03028); assay: Dependence on internal substrate of [14C]oxoglutarate uptake into proteoliposomes reconstituted with recombinant Odc1p; details: Odc1p; for [14C]oxoglutarate transport: proteoliposomes preloaded with 20 mM internal substrate, 0.6 mM [14C]oxoglutarate, 45 seconds; for [14C]oxoglutarate uptake with the internal substrate (in words): proteoliposomes preloaded with various substrates
T1 construct: made in house; host or cells: S. cerevisiae odc1Δodc2Δ (YPH499 background) carrying pYES2-based pODC1; purified from mitochondria on Ni-NTA agarose
T1 sequence (Q03028 1-310): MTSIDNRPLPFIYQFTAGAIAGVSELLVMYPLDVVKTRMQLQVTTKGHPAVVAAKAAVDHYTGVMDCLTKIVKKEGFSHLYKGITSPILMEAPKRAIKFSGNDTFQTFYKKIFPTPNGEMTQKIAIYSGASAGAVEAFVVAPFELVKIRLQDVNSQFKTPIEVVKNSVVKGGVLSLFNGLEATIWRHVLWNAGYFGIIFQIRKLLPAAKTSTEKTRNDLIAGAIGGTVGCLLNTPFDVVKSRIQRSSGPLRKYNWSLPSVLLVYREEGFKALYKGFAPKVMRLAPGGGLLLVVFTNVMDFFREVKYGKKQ
Method: (§1) Reconstitution of the ODC proteins into liposomes—Purified ODC proteins were reconstituted by cyclic removal of the detergent with a hydrophobic column (13). The composition of the initial mixture used for reconstitution was: 200 μl of purified isoform (0.3-0.4 μg of protein), 70 μl of 10% Triton X-114, 100 μl of 10% phospholipids in the form of sonicated liposomes, 20 mM oxoglutarate (except where otherwise indicated), 10 mM Pipes (pH 7.0), 0.7 mg of cardiolipin (Sigma) and water to a final volume of 700 μl. These components were mixed thoroughly, and the mixture was recycled 13 times through an Amberlite column (Supelco) (3.0 cm×0.5 cm) preequilibrated with a buffer containing 10 mM Pipes (pH 7.0) and with the substrate at the same concentration as in the starting mixture. All operations were performed at 4° C., except the passages through Amberlite, which were carried out at room temperature.
(§2) External substrate was removed from proteoliposomes on a Sephadex G-75 column preequilibrated with buffer F (50 mM NaCl and 10 mM PIPES, pH 7.0). Transport at 25° C. was started by adding [^14C]oxoglutarate (unless otherwise indicated) to the proteoliposomes, and terminated by addition of 30 mM pyridoxal 5′-phosphate and 10 mM bathophenanthroline (the “inhibitor-stop” method (13)). In controls, inhibitors were added with the labelled substrate. The external radioactivity was removed on Sephadex G-75 and the internal radioactivity was measured. […] The initial rate of transport was calculated in mmol/min per g protein from the time course of isotope equilibration (13). Various other transport activities were also assayed by the inhibitor-stop method. For efflux measurements, the internal substrate pool of the proteoliposomes was made radioactive by carrier-mediated exchange equilibration (13) with 0.1 mM [^14C]oxoglutarate added at high specific radioactivity. After 60 min, the residual external radioactivity was removed by passing the proteoliposomes again through a column of Sephadex G-75. Efflux was started by adding unlabelled external substrate or buffer F alone and terminated by adding the inhibitors indicated above.
(§3) The substrate specificity of purified Odc1p and Odc2p was investigated further by measuring the uptake of [^14C]oxoglutarate into proteoliposomes which had been preloaded with various substrates.
(§4) Proteoliposomes were preloaded internally with various substrates (concentration, 20 mM). Transport was started by adding [^14C]oxoglutarate (final concentration, 0.6 mM) and terminated after 45 seconds.

[2] = target: T1, Odc1p; assay: Kinetic constants (Km, Vmax, Ki) of recombinant purified Odc1p in proteoliposomes
Method: as §2
(§5) The kinetic constants of the recombinant purified Odc1p and Odc2p were determined by measuring the initial transport rate at various external [^14C]oxoglutarate concentrations, in the presence of a constant saturating internal concentration of 20 mM oxoglutarate.
(§6) The values were calculated from Lineweaver-Burk plots of the rate of [^14C]oxoglutarate versus substrate concentrations. The competing substrates at appropriate constant concentrations were added together with 0.1-2.0 mM [^14C]oxoglutarate to proteoliposomes containing 20 mM oxoglutarate and reconstituted with recombinant Odc1p or Odc2p. The data represent the means ±S.D. of at least three different experiments. n.d., not determined.

[3] = target: T2, Odc2p (Saccharomyces cerevisiae, UniProt Q99297); assay: Dependence on internal substrate of [14C]oxoglutarate uptake into proteoliposomes reconstituted with recombinant Odc2p; details: Odc2p; for [14C]oxoglutarate transport: proteoliposomes preloaded with 20 mM internal substrate, 0.6 mM [14C]oxoglutarate, 45 seconds; for [14C]oxoglutarate uptake with the internal substrate (in words): proteoliposomes preloaded with various substrates
T2 construct: made in house; host or cells: S. cerevisiae odc1Δodc2Δ (YPH499 background) carrying pYES2-based pODC2; purified from mitochondria on Ni-NTA agarose
T2 sequence (Q99297 1-307): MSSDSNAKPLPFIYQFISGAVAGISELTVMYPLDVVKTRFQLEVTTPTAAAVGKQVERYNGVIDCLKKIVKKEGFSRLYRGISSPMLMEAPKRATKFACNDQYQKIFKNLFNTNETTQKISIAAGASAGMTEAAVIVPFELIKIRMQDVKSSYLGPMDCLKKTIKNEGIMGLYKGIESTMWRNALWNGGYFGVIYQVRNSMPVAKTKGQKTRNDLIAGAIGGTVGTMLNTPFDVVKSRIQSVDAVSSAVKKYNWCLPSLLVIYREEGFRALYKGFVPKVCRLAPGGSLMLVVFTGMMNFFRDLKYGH
Method: as §1, §2, §3, §4

[4] = target: T2, Odc2p; assay: Kinetic constants (Km, Vmax, Ki) of recombinant purified Odc2p in proteoliposomes
Method: as §2, §5, §6

[5] = target: T1, Odc1p; assay: Homoexchange of other substrates in proteoliposomes reconstituted with Odc1p; details: internal concentration 10 mM, external concentration 1 mM
Method: as §2
(§7) In order to obtain further information about the mechanism of transport catalyzed by Odc1p and Odc2p, the efflux of [^14C]oxoglutarate from pre-labelled active proteoliposomes was investigated as it provides a more convenient assay for unidirectional transport (13).

[6] = target: T2, Odc2p; assay: Homoexchange of other substrates in proteoliposomes reconstituted with Odc2p; details: internal concentration 10 mM, external concentration 1 mM
Method: as §2, §7

[7] = target: T2, Odc2p; assay: Effect of inhibitors and external compounds on the [14C]oxoglutarate/oxoglutarate exchange by proteoliposomes reconstituted with Odc2p; details: Odc2p, data not shown
Method: as §1, §2
(§8) In addition, the ability of non-radioactive potential substrates to inhibit the oxoglutarate/oxoglutarate exchange was examined.
Proteoliposomes were preloaded internally with 20 mM oxoglutarate and transport was initiated by the addition of 0.4 mM [^14C]oxoglutarate. The incubation time was 45 seconds. Thiol reagents and α-cyanocinnamate were added 2 min before the labelled substrate; the other inhibitors and external substrates were added together with [^14C]oxoglutarate. The final concentration of the inhibitors was 4 mM, except for mercurials (10 μM), carboxyatractyloside (0.1 mM), N-ethylmaleimide and α-cyanocinnamate (2 mM).

[8] = target: T1, Odc1p; assay: Effect of inhibitors and external compounds on the [14C]oxoglutarate/oxoglutarate exchange by proteoliposomes reconstituted with Odc1p; details: Odc1p; for effect of non-radioactive potential substrates on the rate of oxoglutarate uptake (in words): added with 0.4 mM [14C]oxoglutarate, 4.0 mM in FIG. 5, partly data not shown
Method: FIG. 5. Effect of dicarboxylates and 2-oxodicarboxylates with different carbon chain length on the rate of [^14C]oxoglutarate uptake into proteoliposomes reconstituted with recombinant Odc1p. Proteoliposomes were preloaded with 20 mM oxoglutarate and reconstituted with recombinant Odc1p. Transport was initiated by the addition of 0.4 mM [^14C]oxoglutarate and terminated after 45 seconds. Oxalate, malonate, succinate, glutarate, adipate, pimelate, suberate (▪) and the corresponding 2-oxoacids (●) were added simultaneously with [1^4C]oxoglutarate at 4.0 mM concentration.
as §1, §2, §8
Proteoliposomes were preloaded internally with 20 mM oxoglutarate and transport was initiated by the addition of 0.4 mM [^14C]oxoglutarate.

[9] = Odc1p, Lineweaver-Burk plots, 0.1-2.0 mM [14C]oxoglutarate, 20 mM internal oxoglutarate, means ±S.D., read-out: Ki (competition with [14C]oxoglutarate uptake)
[10] = Odc2p, Lineweaver-Burk plots, 0.1-2.0 mM [14C]oxoglutarate, 20 mM internal oxoglutarate, means ±S.D., read-out: Ki (competition with [14C]oxoglutarate uptake)
[11] = read-out: transport affinity (Km) for the oxoglutarate/oxoglutarate exchange

Row | [14C]oxoglutarate transport [1] [mmol/min per g protein] | [14C]oxoglutarate uptake with the internal substrate (in words) [1] | [14C]oxoglutarate transport [3] [mmol/min per g protein] | [14C]oxoglutarate uptake with the internal substrate (in words) [3] | Ki [2, 9] [µM] | Ki [4, 10] [µM] | homoexchange catalyzed by the proteoliposomes (in words) [5] | homoexchange catalyzed by the proteoliposomes (in words) [6] | Structure (SMILES) | other results
1 | 56.4 | taken up efficiently | 11.4 | taken up efficiently | 1320 ± 130 | 1370 ± 160 | – | – | O=C(O)C[C@H](O)C(=O)O [L-malate] | –
2 | – | no exchange | – | no exchange | – | – | did not catalyze homoexchanges | did not catalyze homoexchanges | Nc1ncnc2c1ncn2[C@@H]1O[C@H](COP(=O)(O)OP(=O)(O)O)[C@@H](O)[C@H]1O [ADP] | –
3 | – | no exchange | – | no exchange | – | – | did not catalyze homoexchanges | did not catalyze homoexchanges | C[N+](C)(C)CC(O)CC(=O)[O-] (stereo not drawn) [carnitine] | –
4 | – | no exchange | – | no exchange | – | – | did not catalyze homoexchanges | did not catalyze homoexchanges | CC(C)CC(=O)C(=O)O [2-oxoisocaproate] | effect of oxomonocarboxylates on the rate of uptake of 0.4 mM oxoglutarate (in words) ([7]; 8 mM, 20 times greater than the substrate): did not influence; effect of oxomonocarboxylates on the rate of uptake of 0.4 mM oxoglutarate (in words) ([8]; 8 mM, 20 times greater than the substrate, data not shown): did not influence
5 | – | – | – | – | > 15000 | > 15000 | – | – | O=C(O)CC(=O)C(=O)O [Oxaloacetate] | –
6 | 71.6 | taken up efficiently | 14.8 | taken up efficiently | 1830 ± 200 | 1640 ± 180 | – | – | O=C(O)CCCCC(=O)C(=O)O [2-Oxopimelate] | –
7 | – | no exchange | – | no exchange | – | – | did not catalyze homoexchanges | did not catalyze homoexchanges | NC(=O)CC[C@H](N)C(=O)O [glutamine] | effect of non-radioactive potential substrates on the rate of oxoglutarate uptake (in words) [7]: no effect; effect of non-radioactive potential substrates on the rate of oxoglutarate uptake (in words) [8]: no effect
8 | 19.1 | much lower activity | 4.3 | much lower activity | > 15000 | – | – | – | O=C(O)CCC(=O)O [Succinate] | effect of non-radioactive potential substrates on the rate of oxoglutarate uptake (in words) [7]: virtually no effect; effect of non-radioactive potential substrates on the rate of oxoglutarate uptake (in words) [8]: virtually no effect
9 | 85.0 | taken up efficiently | 22.1 | taken up efficiently | 260 ± 30 | 310 ± 40 | – | – | O=C(O)CCCC(=O)C(=O)O [2-Oxoadipate] | –

Row | Structure (SMILES) | [14C]oxoglutarate transport [1] [mmol/min per g protein] | [14C]oxoglutarate uptake with the internal substrate (in words) [1] | [14C]oxoglutarate transport [3] [mmol/min per g protein] | [14C]oxoglutarate uptake with the internal substrate (in words) [3] | Ki [2, 9] [µM] | Ki [4, 10] [µM] | homoexchange catalyzed by the proteoliposomes (in words) [5] | homoexchange catalyzed by the proteoliposomes (in words) [6] | other results
10 | O=C(O)CC(O)(CC(=O)O)C(=O)O [Citrate] | 28.6 | much lower activity | 8.0 | much lower activity | – | – | – | – | Ki [2]: 6000 ± 800 µM; Ki [4]: 5900 ± 600 µM
11 | O=C(O)CCC(=O)C(=O)O [2-Oxoglutarate] | 112.5 | taken up efficiently | – | – | – | – | – | – | specific activity (Vmax) for the oxoglutarate/oxoglutarate exchange ([2]; Odc1p, 25° C., 20 mM internal oxoglutarate, 24 experiments): 252±53 mmol/min per g protein; Km [2, 11]: 520 ± 80 µM; specific activity (Vmax) for the oxoglutarate/oxoglutarate exchange ([4]; Odc2p, 25° C., 20 mM internal oxoglutarate, 16 experiments): 73±17 mmol/min per g protein; Km [4, 11]: 470 ± 70 µM
12 | N[C@@H](CCC(=O)O)C(=O)O [glutamate] | – | no exchange | – | no exchange | – | – | did not catalyze homoexchanges | did not catalyze homoexchanges | –
